Source: patent US20240207282A1, “METHOD OF INCREASING CHAPERONE MEDIATED AUTOPHAGY BY STABILIZING THE INTERACTION OF RETINOIC ACID RECEPTOR-ALPHA AND AN INHIBITOR” (ALBERT EINSTEIN COLLEGE OF MEDICINE, priority 2021, published 2024)

Assays:
[1] = system: retinal explants of rd10 mice; assay: Ex vivo retinal explants of rd10 mice; set-up: species or system mouse; conditions: 10 μM, 24 h; vs contralateral untreated explant
Procedure: Ex-vivo retinal cultures: After removal of the eyes, all non-relevant tissue was removed from the neuroretina, which was then placed, photoreceptors upside down, in millicell support inserts (Millipore) and maintained in DMEM with 1 μM insulin (SIGMA, I2643-25 mg) for 24 h at 37° C. in a 5% CO2 atmosphere. Where indicated, retinas were incubated with 10 µM CA77 for the indicated times. The retinas were then washed twice with phosphate-buffered saline (PBS), fixed overnight in 4% paraformaldehyde (w/v) in 0.1 M phosphate buffer (pH 7.4) and processed.
Staining of whole-mount retinas: Immunostainings were performed overnight at 4° ° C. using antibodies against visual arrestin (Santacruz Biotechnologies) and Opsin R/G (Millipore) after initial permeabilization with 2% Triton X-100 for 1 h at RT and subsequent incubation with blocking solution (10% normal goat serum, 0.25% Triton X-100 in PBS). The retinas were then washed and incubated for 1 h with Alexa 568 or 647 (Invitrogen), counterstained with DAPI, mounted in Fluoromount, and visualized by confocal microscopy in a SP5 confocal microscope (TCS SP5; Leica Microsystems).

rd10 mice = assay: rd10 mouse retinal degeneration, systemic (i.p.) administration; assay type: in vivo
Description: Animals: C57BL/6J mice wild-type (WT) and homozygous for the Pde6 mutation (rd10 mouse model of retinal degeneration) were obtained from The Jackson Laboratory. C57BL/6 KFERQ-Dendra mice were generated by back-crossing FVB KFERQ-Dendra mice with wild-type C57BL/6 mice for 8 generations. Both male and female animals were used in this study in equal distribution groups. However, results from both sexes were pooled, because of absence of significant differences in any of the parameters analyzed after statistical analysis with a mixed model of two-way ANOVA sex and treatment as independent variables and the corresponding measure as dependent variable. All animals were housed in a barrier-controlled facility (19-23° C. 30-60% relative humidity; 12-h light/dark cycle) with ad libitum access to standard chow pellets and water. For animal administration of CA compounds, a formula containing 30% PEG 400, 65% glucose solution (5%), 5% Tween 80 was used to dissolve them. CA compounds were prepared freshly by adding 5% DMSO and sonicating for 1 h. Treatment of KFERQ-Dendra mice with the CA compounds was done by i.p. daily injection of 30 mg/kg bw or vehicle for three consecutive days and tissues collected 6 h after the last injection. In the case of rd10 mice, animals were daily injected from P18 to P25 with CA77 (40 mg/kg bw). At P26, mice were sacrificed, and eyes fixed overnight with 4% PFA in PBS at 4° C. for immunofluorescence or retinas dissected and immediately frozen for biochemistry. Distribution of animals in the vehicle or treatment group was done randomly. All animal studies and procedures complied with ethical regulations, were performed in accordance with the European Union guidelines and the ARVO Statement for the Use of Animals in Ophthalmic and Vision Research and were approved by the Institutional Animal Care and Use Committee at the Albert Einstein College of Medicine, the CSIC Bioetica Comite and approved by the Comunidad de Madrid, PROEX232/17.
Cryosections and immunofluorescence: Cryosections and immunofluorescence in retinal sections were performed as previously described 10. Primary antibodies used in this study were Transducin (Santacruz Biotechnologies) and Opsin R/G (Millipore). Sections were visualized by confocal microscopy (TCS SP5; Leica Microsystems).
ONL thickness and outer segment length quantification: For ONL thickness quantification, DAPI images were taken at 40× in a fluorescence microscope Multidimensional system Leica AF6000 LX coupled to DMI600B microscope and Hamamatsu CCD 9100-02 camera. At least two sections per animal were analyzed, preferably central sections. Eight images per retina equally distributed along the retina were acquired. Three measures were taken per image and ratio ONL/INL quantified with ImageJ tools. Leica LAS-X was used for image acquisition and ImageJ (v.2.1.0) was used for image processing. For OS length measures, fixed positions common to all pictures were considered and OS length was measured using ImageJ straight line tool.
Mice were dark adapted overnight, and subsequent manipulations were performed in dim red light. Mice were anesthetized with intraperitoneal injections of ketamine (95 mg/kg) and xylazine (5 mg/kg) solution and maintained on a heating pad at 37° C. Pupils were dilated with a drop of 1% tropicamide (Colircusi Tropicamida; Alcon Cusi). To optimize electrical recording, a topical drop (2% Methocel; Hetlingen) was instilled on each eye immediately before situating the corneal electrode. Flash-induced ERG responses were recorded from the right eye in response to light stimuli produced with a Ganzfeld stimulator. Light intensity was measured with a photometer at the level of the eye (Mavo Monitor USB; Nürenberg). Four to 64 consecutive stimuli were averaged with an interval between light flashes in scotopic conditions of 10 s for dim flashes and of up to 60 s for the highest intensity. Under photopic conditions, the interval between light flashes was fixed at 1 s. […]

NIH3T3 = assay: Cell viability under paraquat oxidative stress; assay type: cell-based, mouse
Procedure: Cells: NIH3T3 mouse fibroblasts and the N2a neuroblastoma cell line were obtained from the American Type Culture Collection and were validated by genomic PCR. Primary human fibroblasts (GM01651) were from Coriell Repository. All the cells lines were tested for mycoplasma contamination using DNA staining protocol with Hoechst 33258 dye. Knock-down of NCoR1 was done using lentiviral mediated shRNA (SHCLNG-NM_011308) from the Sigma Mission library following standard procedures. Efficiency of knock-down was tested by immunoblot. Cell viability was measured using the CellTiter-Blue kit (Promega) 24 h after the addition of the different stressors according to manufacturer's instructions.

[2] = daily i.p. 40 mg/kg bw, p18 to p25

Row | other light responses (ERG) (rd10 mice; ERG at P33) | SMILES | cones (opsin-positive) [1] | number of rods (rod arrestin-positive) [1] | electroretinogram wave amplitude (rd10 mice; ERG at P33) | NCoR1 expression levels (rd10 mice; WT and rd10 mice, daily i.p. 40 mg/kg bw) | mRNA levels of photoreceptor-specific proteins (rhodopsin) (rd10 mice; [2]) | outer nuclear layer (ONL) thickness (rd10 mice; [2]) | retinal GFAP levels (rd10 mice; [2]) | retinal L2A levels (immunoblot) (rd10 mice; [2]) | length of outer segments of photoreceptors (rd10 mice; daily i.p. 40 mg/kg bw, p18 to p25, vs vehicle) | protection against paraquat (NIH3T3; compound added after the insult, compared with AR7) | cell death under paraquat (NIH3T3; compound administered before the insult)
1 | No significant differences | CC(=O)Nc1ccc(C2=Nc3ccc(Cl)cc3OC2)cc1 [CA77] | higher preservation also for cones | significant preservation of the number of rods | significantly higher amplitude of their b-mixed, b-phot and flicker waves | did not change the expression levels of NCoR1 | Higher mRNA levels of photoreceptor-specific proteins | significantly thicker outer nuclear layers | strikingly lower levels of GFAP | significantly increasing retinal levels of the limiting CMA component | increased length of the outer segments of photoreceptors |  | 
2 |  | Clc1ccc2c(c1)OCC(c1ccc(-c3ccccc3)cc1)=N2 [CA39] |  |  |  |  |  |  |  |  |  | significantly higher protection than AR7 | reduced cell death
